# Data from a flash point compilation (Sun et al. 2020).
row,SMILES,flash point
1,S=C([S-])NCCNC(=S)[S-].S=C([S-])NCCNC(=S)[S-].[Mn+2].[Zn+2],138.00 °C
2,S=C([S-])NCCNC(=S)[S-].[Mn+2],138.00 °C
3,NCCNCCNCCNCCN,163.00 °C
4,Cl.O=C(O)CCP(CCC(=O)O)CCC(=O)O,202.00 °C
5,O=C1OC(=O)c2cccc3cccc1c23,272.00 °C
6,O=P1(N(CCCl)CCCl)NCCCO1 (stereo not given),113.00 °C
7,C=C1C(CCl)(CCl)C2(Cl)C(Cl)C(Cl)C1(Cl)C2(Cl)Cl (stereo not given),29.00 °C
8,C=C1CCC=C(C)CC[C@@H]2[C@@H]1CC2(C)C,101.00 °C
9,CC(C)(C)c1cc(CCC(=O)OCC(COC(=O)CCc2cc(C(C)(C)C)c(O)c(C(C)(C)C)c2)(COC(=O)CCc2cc(C(C)(C)C)c(O)c(C(C)(C)C)c2)COC(=O)CCc2cc(C(C)(C)C)c(O)c(C(C)(C)C)c2)cc(C(C)(C)C)c1O,297.00 °C
10,CC(C)(c1ccc(OC[C@@H]2CO2)cc1)c1ccc(OC[C@@H]2CO2)cc1,79.00 °C
11,CC(C)=CCC/C(C)=C\CC/C(C)=C/CC/C=C(\C)CC/C=C(\C)CCC=C(C)C,110.00 °C
12,CC(C)C(=O)OCC(C)(C)C(OC(=O)C(C)C)C(C)C (stereo not given),121.00 °C
13,CC(C)Nc1nc(Cl)nc(NC2CC2)n1,163.00 °C
14,CC(C)[C@H](C(=O)O[C@H](C#N)c1cccc(Oc2ccccc2)c1)c1ccc(Cl)cc1,256.00 °C
15,CC1(C)C2CCC1(C)C(OC(=O)CSC#N)C2 (stereo not given),82.00 °C
16,Cc1c(COC(=O)C2C(C=C(Cl)C(F)(F)F)C2(C)C)cccc1-c1ccccc1 (stereo not given),165.00 °C
17,CC1=C(C(=O)Nc2ccccc2)S(=O)(=O)CCO1,219.00 °C
18,Cc1cc(O)c(C(C)(C)C)cc1Sc1cc(C(C)(C)C)c(O)cc1C,216.00 °C
19,C=Cc1ccc(C)cc1.C=Cc1cccc(C)c1.C=Cc1ccccc1C,52.00 °C
20,CC1=C[C@H]2C(=O)O[C@H]3C[C@@H](C/C=C(\C)C[C@@H](C)/C=C/C=C4\CO[C@H]([C@@H]1O)[C@@]42O)O[C@@]1(CC[C@H](C)[C@@H](C)O1)C3,43.00 °C
21,C=C(C)C1CCC2=CC(=O)CC(C)C2(C)C1 (stereo not given),100.00 °C
22,CCC1CCC(CCC(=O)[O-])C1.CCC1CCC(CCC(=O)[O-])CC1.[Cu+2] (stereo not given),38.00 °C
23,CCCCC(CC)Cc1c(C(=O)OOOC(=O)c2cc(O)c(O)c(O)c2)cc(O)c(O)c1O (stereo not given),232.00 °C

row,SMILES,flash point
1,CCCCCC1OC1CC1OC1CCCCCCCC(=O)OCC(COC(=O)CCCCCCCC1OC1CC1OC1CCCCC)OC(=O)CCCCCCCC1OC1CC1OC1CCCCC (stereo not given),307.00 °C
2,CCCCCCCCCc1ccc(OCCOCCOCCOCCOCCOCCOCCOCCOCCO)cc1,197.00 °C
3,CCCCOC(=O)COC(=O)c1ccccc1C(=O)OCCCC,199.00 °C
4,CCCNCC(O)COc1ccccc1C(=O)CCc1ccccc1 (stereo not given),199.00 °C
5,CCCOP(=S)(OCCC)OP(=S)(OCCC)OCCC,149.00 °C
6,CCOP(=S)(OCC)Oc1cc(C)nc(N(CC)CC)n1,113.00 °C
7,CCOP(=S)(OCC)Oc1ccc([N+](=O)[O-])cc1,120.00 °C
8,CCOP(=S)(OCC)Oc1nc(Cl)c(Cl)cc1Cl,28.00 °C
9,CCOP(=S)(OCC)SCSC(C)(C)C,88.00 °C
10,CCSC(C)CC1CC(=O)C(/C(CC)=N/OC/C=C/Cl)=C(O)C1 (stereo not given),72.00 °C
11,COc1ccc2c3c1OC1C(O)C=CC4C(C2)N(C)CCC341 (stereo not given),75.00 °C
12,COC(C)(C)CCCC(C)C/C=C/C(C)=C/C(=O)OC(C)C (stereo not given),187.00 °C
13,COP(=O)(OC)OC1=C(Cl)C2C=CCC12 (stereo not given),165.00 °C
14,COP(=S)(OC)Oc1nc(Cl)c(Cl)cc1Cl,182.00 °C
15,COc1cc(CNC(=O)CCCC/C=C/C(C)C)ccc1O,113.00 °C
16,C[Si]1(C)O[Si](C)(C)O[Si](C)(C)O[Si](C)(C)O[Si](C)(C)O1,73.00 °C
17,Cc1nn(C)c(Oc2ccccc2)c1/C=N/OCc1ccc(C(=O)OC(C)(C)C)cc1,85.00 °C
18,O=C(OC[C@H]1O[C@@H](OC(=O)c2cc(O)c(O)c(OC(=O)c3cc(O)c(O)c(O)c3)c2)[C@H](OC(=O)c2cc(O)c(O)c(OC(=O)c3cc(O)c(O)c(O)c3)c2)[C@@H](OC(=O)c2cc(O)c(O)c(OC(=O)c3cc(O)c(O)c(O)c3)c2)[C@@H]1OC(=O)c1cc(O)c(O)c(OC(=O)c2cc(O)c(O)c(O)c2)c1)c1cc(O)c(O)c(OC(=O)c2cc(O)c(O)c(O)c2)c1,199.00 °C
19,O=c1[nH]cnc2c1ncn2[C@H]1C[C@H](O)[C@@H](COP(=O)(O)OP(=O)(O)O)O1,229.00 °C
20,OC[C@H]1O[C@@H](OC/C=C/c2ccccc2)[C@H](O)[C@@H](O)[C@@H]1O,187.00 °C
21,"c1ccc(-c2ccccc2)cc1.c1ccc(Oc2ccccc2)cc1 [1,1'-biphenyl;phenoxybenzene]",124.00 °C
22,"ClC(Cl)=C(Cl)C(Cl)=C(Cl)Cl [1,1,2,3,4,4-hexachlorobuta-1,3-diene]",90.00 °C
23,"CCCCC(Cl)Cl [1,1-dichloropentane]",41.00 °C

row,SMILES,flash point
1,"N=C(N)N(c1ccccc1)c1ccccc1 [1,1-diphenylguanidine]",170.00 °C
2,"C1CCC2CCCCC2C1 (stereo not given) [1,2,3,4,4a,5,6,7,8,8a-decahydronaphthalene]",57.00 °C
3,"Cc1cc(C)c(C)c(C)c1 [1,2,3,5-tetramethylbenzene]",63.00 °C
4,"Clc1cccc(Cl)c1Cl [1,2,3-trichlorobenzene]",112.00 °C
5,"Cc1cc(C)c(C)cc1C [1,2,4,5-tetramethylbenzene]",54.00 °C
6,"Clc1ccc(Cl)c(Cl)c1 [1,2,4-trichlorobenzene]",110.00 °C
7,"Cc1ccc(C)c(C)c1 [1,2,4-trimethylbenzene]",44.00 °C
8,"C=Cc1ccccc1C=C [1,2-bis(ethenyl)benzene]",62.00 °C
9,"ClCC(Br)CBr (stereo not given) [1,2-dibromo-3-chloropropane]",77.00 °C
10,"Clc1ccc(-c2cccc(Cl)c2Cl)c(Cl)c1 [1,2-dichloro-3-(2,4-dichlorophenyl)benzene]",141.00 °C
11,"FC(F)(F)c1ccc(Cl)c(Cl)c1 [1,2-dichloro-4-(trifluoromethyl)benzene]",65.00 °C
12,"ClC=CCl [1,2-dichloroethene]",4.00 °C
13,"CCc1ccccc1CC [1,2-diethylbenzene]",57.00 °C
14,"c1cc2c3c(cccc3c1)CC2 [1,2-dihydroacenaphthylene]",125.00 °C
15,"O=c1ccc(=O)[nH][nH]1 [1,2-dihydropyridazine-3,6-dione]",300.00 °C
16,"C=CCc1ccc(OC)c(OC)c1 [1,2-dimethoxy-4-prop-2-enylbenzene]",99.00 °C
17,"Cc1ccc([N+](=O)[O-])cc1C [1,2-dimethyl-4-nitrobenzene]",107.00 °C
18,"NC(=Nc1ccccc1)Nc1ccccc1 [1,2-diphenylguanidine]",198.00 °C
19,"Cc1ccc(C)cc1.Cc1cccc(C)c1.Cc1ccccc1C [1,2-xylene;1,3-xylene;1,4-xylene]",25.00 °C
20,"Clc1cc(Cl)cc(Cl)c1 [1,3,5-trichlorobenzene]",107.00 °C
21,"Clc1cc(Cl)cc(-c2cc(Cl)cc(Cl)c2)c1 [1,3-dichloro-5-(3,5-dichlorophenyl)benzene]",141.00 °C
22,"O=[N+]([O-])c1cc(Cl)cc(Cl)c1 [1,3-dichloro-5-nitrobenzene]",140.00 °C
23,"CC(Cl)=CCCl [1,3-dichlorobut-2-ene]",27.00 °C

row,SMILES,flash point
1,"ClCCCCl [1,3-dichloropropane]",21.00 °C
2,"CCN(C(=O)N(CC)c1ccccc1)c1ccccc1 [1,3-diethyl-1,3-diphenylurea]",150.00 °C
3,"Cc1cccc(C)c1[N+](=O)[O-] [1,3-dimethyl-2-nitrobenzene]",88.00 °C
4,"C1COCOC1 [1,3-dioxane]",2.00 °C
5,"O=C(O)c1ccc2c(c1)C(=O)OC2=O [1,3-dioxo-2-benzofuran-5-carboxylic acid]",227.00 °C
6,"O=C1OCCO1 [1,3-dioxolan-2-one]",143.00 °C
7,"c1ccc(-c2cccc(-c3ccccc3)c2)cc1 [1,3-diphenylbenzene]",191.00 °C
8,"COc1cc(Cl)c(OC)cc1Cl [1,4-dichloro-2,5-dimethoxybenzene]",161.00 °C
9,"O=[N+]([O-])c1cc(Cl)ccc1Cl [1,4-dichloro-2-nitrobenzene]",135.00 °C
10,"ClCC=CCCl [1,4-dichlorobut-2-ene]",53.00 °C
11,"ClCCCCCl [1,4-dichlorobutane]",40.00 °C
12,"c1ccc(-c2ccc(-c3ccccc3)cc2)cc1 [1,4-diphenylbenzene]",207.00 °C
13,"Cc1ccc(C)cc1 [1,4-xylene]",27.00 °C
14,"O=C=NCCCCCCN=C=O [1,6-diisocyanatohexane]",140.00 °C
15,"CC12CCC(CC1=O)C2(C)C (stereo not given) [1,7,7-trimethylbicyclo[2.2.1]heptan-2-one]",66.00 °C
16,CCCCOCCOCC(C)O (stereo not given) [1-(2-butoxyethoxy)propan-2-ol],121.00 °C
17,CC(O)CNCC(C)O (stereo not given) [1-(2-hydroxypropylamino)propan-2-ol],126.00 °C
18,CCC(OCCCOC)OC(C)=O (stereo not given) [1-(3-methoxypropoxy)propyl acetate],86.00 °C
19,COc1ccc(C(C)=O)cc1 [1-(4-methoxyphenyl)ethanone],138.00 °C
20,Cc1ccc(CBr)cc1 [1-(bromomethyl)-4-methylbenzene],98.00 °C
21,"C=CCOC(Cn1ccnc1)c1ccc(Cl)cc1Cl (stereo not given) [1-[2-(2,4-dichlorophenyl)-2-prop-2-enoxyethyl]imidazole]",192.00 °C
